Earlier results, collected in US20090209656A1, “DISINFECTION/SANITATION METHOD WHERE THE MATERIAL IS TREATED WITH A SOLUTION COMPRISING BENZYL ALCOHOL AND C2-3 ALCOHOL” (GE HEALTHCARE BIO-SCIENCES AB, priority 2006, published 2009).

Assays:
[1] = acute toxicity
[2] = long-term exposure

In the case of `OCc1ccccc1` [benzyl alcohol], the LD50 [1] is given as 1610 mg/kg body weight and the NOAEL [2] is given as over 400 mg/kg body weight/day.
